The target of experiment [1] is T1, BB loop (710-RDFIPGVAIAA-720) of the TLR4-TIR domain (Homo sapiens, UniProt O00206).
T1 construct: Synthetic peptides encoding the BB loop (710-RDFIPGVAIAA-720) of the TIR domain were immobilized; purchased Peptron, Inc. (Daejeon, Korea); host or cells: chemical synthesis
Put plainly: SPR, BB loop. Format: binding. How it is done: The SPR experiments were conducted using a ProteOn XPR36 instrument (Bio-Rad Laboratories, Inc.) with a ProteOn NLC sensor chip. PBST served as running buffer, and 0.85% phosphoric acid or PBST was used for regeneration. Synthetic peptides encoding the BB loop (710-[…]-720) of the TIR domain were immobilized by NeutrAvidin bound to the GLC polymer layer onto surfaces of an NLC sensor chip as described in the protocol. Different concentrations of TIP1 (12.5, 25, or 50 μM) were run into the chip to check their binding with the immobilized peptides. Running buffer was injected into an empty channel as a reference. The dissociation was monitored for 5 min, and the chip was regenerated for the second round. ProteOn Manager software (version 2.0) was employed to analyze the data. The binding curves were processed for the start injection alignment and baseline. A reference-subtracted sensorgram was fitted globally to the curves describing a homogeneous 1:1 model. Data from various doses of TIP1 were grouped together to fit the kinetic rate constants (ka and kd). The equilibrium dissociation constant, KD, was calculated according to the equation KD = kd/ka. Surface plasmon resonance (SPR) is a powerful technique used for high-throughput screening and is considered a potent tool for drug discovery. SPR can provide detailed information on peptide-receptor binding kinetics or small-molecule-protein or protein-protein interactions. […] The association rate constant (ka), dissociation rate constant (kd), and equilibrium dissociation constant (KD) of TIP1 were measured in a dose-dependent manner (Fig. 4a). […] Later, the fluorescence intensities of TIP1-FITC, TLR4, and MyD88 were measured by immunofluorescent staining and confocal microscopy. […] The expression levels of TLR4 and MyD88 and the localization of TIP1-FITC were determined by immunofluorescent staining and confocal microscopy. Orthogonal projections, 3D image reconstruction, and fluorescence intensity profiles of confocal images show localization of TIP1-FITC and TLR4.
On the technique in general: Surface plasmon resonance follows binding to a sensor surface in real time, without labels.

In experiment [2] the test system is CIA mouse model (DBA/1J mice). The experiment can be described thus: RA in a model of CIA. Format: in vivo. Conditions: i.p. daily. How it is done: All animal care and experimental procedures were conducted in accordance with the National Institute of Health Guide for the Care and Use of Laboratory Animals and were approved by the Animal Care and Use Committee of Kyung Hee University [Permit number: KHUASP(SE)-15-115]. Male DBA/1J mice weighing 20–23 g (6–7 weeks old) were purchased from Central Lab Animal Inc. (Seoul, Korea). The mice were housed in a limited-access rodent facility at 22–24 °C with up to four animals per polycarbonate cage under a 12:12-h light/dark cycle with free access to pelleted food and water. CIA was implemented according to the protocol previously described. Briefly, the mice were immunized at the base of the tail with a mixture of 100 μg of chicken type II collagen (CII, Sigma-Aldrich) and an equal volume of complete Freund’s adjuvant (Sigma-Aldrich); this time point was designated as day 0. The mice were then given a booster (second) injection of the mixture on day 14. […] To evaluate arthritis progression in the CIA mice, body weight, paw volume, squeaking score, and the arthritic index were measured. The mouse body weights were measured using a digital balance (Mettler-Toledo Inc., Columbus, OH, USA). Joint pain in the hindlimb was evaluated by scoring squeaking during forced flexion and extension of the hindlimb ankle joint 10 times every 5 s. […] Total numbers of vocalizations detected by the observer were then calculated as the squeaking score. Paw volume was measured by the volume displacement of an electrolyte solution using a water-displacement plethysmometer (Ugo-Basile Biological Research Apparatus Co., Comerio-Varese, Italy) as described elsewhere[13],[14]. The hind paw was immersed to the level of the hairy skin, and the volumes were read on a digital display. Paw volume was expressed as a relative value compared with that on day 0, which was defined as 1.0 (100%). […]

Data on two compounds can be found in PMC6486608, “A cell-penetrating peptide blocks Toll-like receptor-mediated downstream signaling and ameliorates autoimmune and inflammatory diseases in mice” (Experimental & Molecular Medicine, 2019).

pKd: −log10 of the molar value. Ends that are not written are not given here.

The term pKd denotes −log10 of the Kd, conventionally taken in molar units. With RQIKIWFQNRRMKWKKSHCRVLLI [TIP1], the kon in experiment [1] (homogeneous 1:1 model, global fit of 12.5, 25, 50 µM, read-out: ka (association rate constant)) turned out to be 187 M⁻¹ s⁻¹. Moreover, the koff in experiment [1] (homogeneous 1:1 model, global fit of 12.5, 25, 50 µM, read-out: kd (dissociation rate constant)) came to 0.00782 s⁻¹. Besides, in experiment [1] (printed in figure 4a, calculated as kd/ka), the negative-log Kd (pKd) was 4.38.

Regarding `C[C@]12C=CC(=O)C=C1CC[C@@H]1[C@@H]2[C@@H](O)C[C@@]2(C)[C@H]1CC[C@]2(O)C(=O)CO` [prednisolone], in experiment [2] (TIP1 10 nmol/g or prednisolone 5 mg/kg, CIA 16.9 g, normal 21.9 g), the “body weight, average” value is listed as 21.0 g. For the same compound, in experiment [2] (TIP1 10 nmol/g or prednisolone), the arthritis index score entry is reported as “significantly decreased the index score”; the “squeaking and paw volume increase” value is “highly increased in the CIA mice compared with normal mice but not in the TIP1 (10 nmol/g)- or prednisolone-injected mice”.
